# Patent US20040009899A1, “Treating dominant disorders” (priority 2002, published 2004)
# Tested on: R6/2 mice
# Assay: Survival of R6/2 transgenic mice treated with PNA
# Assay type: in vivo, mouse
# Experimental: Cannulation and microsurgery—Method 2: Pump cannulas were prepared 48 hours before surgery. For adaptation to mice, Alzet pump cannulas were ground to a length of 2 mm. The cannulas then were sterilized by gas ozonation. Mice were anesthetized via i.p. injection with 100 mg/kg of a ketamine/xylazine solution containing 8 mg/mL ketamine and 1 mg/mL xylazine in 0.9% saline. Once anesthetized, each mouse was cannulated. Each anesthetized mouse was placed in a Stoelting Stereotaxic Frame with a mouse adapter (Stoelting Instruments). An incision was made using a scalpel, and the skin and tissue were pulled back with swabs to reveal the skull. The cannulation site was positioned for optimum access to the ventricle, at coordinates AP −0.2 mm, Horiz −1 mm from bregma. A cannula entry port and two bone screw ports were opened in the skull using a Dremel Flex Shaft Drill (Stoelting Instruments) with a 2.1 mm burr. The cannula was lowered into place and affixed using Loctite 454 (Loctite Corp., Avon, Ohio). An Alzet Mini-Osmotic Pump was inserted into a pouch beneath the skin and attached to the cannula with silastic tubing. The wound was closed using wound clips and the animal was allowed to recuperate.
# Delivery of PNA oligomer solutions: All handling of tubing and cannulas was done under sterile conditions. PNA solutions at the correct concentrations were diluted in artificial cerebrospinal fluid (ACSF; 147 mM NaCl, 4.02 mM KCl, 1.2 mM CaCl2, pH 7.5) and then filtered for delivery. As a control, ACSF containing no PNA was delivered.
# Experiments were conducted to determine whether PNA-mediated inhibition of mutant huntingtin expression increased survival and/or reversed features of pathophysiology. R6/2 and non-transgenic mice were divided into two groups of three to five mice each, and treated with either HDs or ACSF for approximately ten weeks, beginning at five to six weeks of age. Treated animals received a dose of 0.15 mg/kg of the HDs PNA oligomer, administered by continuous infusion through an Alzet pump. All ACSF-treated transgenic mice died by three months of age.
# In other experiments, R6/2 mice were divided into five groups (designated groups 1-5) containing eight to ten animals each. Groups 1-4 received either saline (group 1) or a specific amount of HDs (groups 2-4). Group 5 included untreated R6/2 mice. A sixth group included untreated non-transgenic B6CBA control mice. At 8 weeks of age, each mouse was weighed to establish a weight stability baseline. Baselines for clasping behavior, motility, and motor skill were established at 9 weeks of age using the methods described in Example 1.
# At 9 weeks of age, the mice in each group received saline (group 1) or HDs at 2.0 mg/kg, 5.0 mg/kg, or 20.0 mg/kg (groups 2, 3, and 4, respectively) by i.p. injection every 48 hours. The injections continued through 13 weeks of age (i.e., treatment for […]). Weight stability, clasping behavior, motility, and motor skill were assessed weekly during the treatment period. At the time of death or after the treatment period, the brain of each mouse was removed using standard methods. The brains were divided into hemispheres, and one hemisphere of each brain was saved for protein and mRNA analysis. The remaining hemispheres were fixed directly in 10% formalin for 5-7 days. After fixing, the brain hemispheres were weighed individually and processed for sectioning and pathophysiology.
substance,measurement,setting,value
"HDs: sense PNA oligomer, 14 residues, 5′-GGACTGCCGTGCCG-3′ (SEQ ID NO:3), specific for the expanded human HD allele (all peptide nucleic acid (PNA))",survival of longest-surviving treated animal (one of three),0.15 mg/kg continuous infusion by Alzet pump,still alive and healthy at six months of age
same,survival,"0.15 mg/kg continuous infusion by Alzet pump, about ten weeks from five to six weeks of age, ACSF-treated all died by three months",improved survival
same,mice alive at 13 weeks of age,2.0 mg/kg i.p. every 48 hours from 9 weeks of age,None
same,mice alive at 13 weeks of age,5.0 mg/kg i.p. every 48 hours from 9 weeks of age,50%
same,mice alive at 13 weeks of age,20.0 mg/kg i.p. every 48 hours from 9 weeks of age,20%
